Measurements reported in patent publication US20080262029A1, “Acid and Base Salt Forms of Gaboxadol” (H. Lundbeck A/S, priority 2005, published 2008).
Counter-ions that a name gives are not always drawn.

Tests used:
[1] = Differential scanning calorimetry (DSC) of gaboxadol salt forms; assay type: physicochemical; details: for DSC exothermic decomposition onset / DSC exothermic transition onset: 25 to 300° C., 10° C./min, dry nitrogen
Protocol: (§1) The X-ray powder diffraction spectra was generated on a Philips Analytical X'Pert PRO X-ray Diffraction System with PW3040/60 console. A PW3373/00 ceramic Cu LEF X-ray tube K-Alpha radiation was used as the source. The X-ray powder diffraction spectrum was recorded at ambient temperature (CuKα radiation, 3° to 40° (2θ), steps of 0.014°, 0.2 sec per step), giving the results herein. Solid-state carbon-13 NMR spectrum was obtained on a Bruker DSX 400WB NMR system using a Bruker 4 mm double resonance CPMAS probe. Carbon-13 NMR spectrum utilized proton/carbon-13 cross-polarization magic-angle spinning with variable-amplitude cross polarization. The sample was spun at 15.0 kHz, and a total of 2048 scans were collected with a recycle delay of 20 seconds. A line broadening of 40 Hz was applied to the spectrum before FT was performed. Chemical shifts are reported on the TMS scale using the carbonyl carbon of glycine (176.03 p.p.m.) as a secondary reference. DSC traces were recorded between 25 and 300° C. (10° C./min), under a flow of dry nitrogen. TGA was carried out between 25 and 300° C. (10° C./min), under a flow of dry nitrogen.

[2] = Thermogravimetric analysis (TGA) of gaboxadol salt forms; assay type: physicochemical; details: for TGA decomposition onset / TGA weight loss before decomposition (in words): 25 to 300° C., 10° C./min, dry nitrogen
Protocol: as §1

[3] = biological target: GABAA receptors comprising α4 and δ subunits (Homo sapiens, UniProt O14764+P48169); details: Brown et al, British J. Pharmacol., 136, 965-74 (2002); cited from earlier work
GABAA receptors comprising α4 and δ subunits, sequence (P48169 36-554): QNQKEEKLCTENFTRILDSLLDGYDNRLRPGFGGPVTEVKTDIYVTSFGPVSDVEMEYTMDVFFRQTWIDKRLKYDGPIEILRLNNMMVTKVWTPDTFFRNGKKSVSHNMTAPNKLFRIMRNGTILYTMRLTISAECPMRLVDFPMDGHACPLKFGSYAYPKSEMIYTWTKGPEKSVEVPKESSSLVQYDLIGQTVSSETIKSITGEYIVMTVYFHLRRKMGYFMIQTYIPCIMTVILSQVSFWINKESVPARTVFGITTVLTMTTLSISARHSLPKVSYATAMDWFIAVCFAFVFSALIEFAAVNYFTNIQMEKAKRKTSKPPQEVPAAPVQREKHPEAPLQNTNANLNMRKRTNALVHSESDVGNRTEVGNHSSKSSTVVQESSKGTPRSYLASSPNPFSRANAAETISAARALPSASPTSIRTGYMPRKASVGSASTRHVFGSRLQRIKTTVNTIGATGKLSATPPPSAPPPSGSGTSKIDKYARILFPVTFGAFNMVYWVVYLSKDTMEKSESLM
GABAA receptors comprising α4 and δ subunits, sequence (O14764 25-452): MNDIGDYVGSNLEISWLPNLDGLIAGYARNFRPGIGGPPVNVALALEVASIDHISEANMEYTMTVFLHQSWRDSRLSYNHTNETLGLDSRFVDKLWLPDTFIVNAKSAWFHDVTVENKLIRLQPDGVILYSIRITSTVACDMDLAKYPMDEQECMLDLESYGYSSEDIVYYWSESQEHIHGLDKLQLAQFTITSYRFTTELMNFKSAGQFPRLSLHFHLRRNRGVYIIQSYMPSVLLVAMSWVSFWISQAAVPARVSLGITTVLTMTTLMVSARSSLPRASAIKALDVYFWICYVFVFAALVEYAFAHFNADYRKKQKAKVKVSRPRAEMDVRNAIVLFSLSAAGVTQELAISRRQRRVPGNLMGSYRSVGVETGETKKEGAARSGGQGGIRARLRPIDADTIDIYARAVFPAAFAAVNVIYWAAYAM
GABAA receptors comprising α4 and δ subunits, sequence (P28472 26-473 partner): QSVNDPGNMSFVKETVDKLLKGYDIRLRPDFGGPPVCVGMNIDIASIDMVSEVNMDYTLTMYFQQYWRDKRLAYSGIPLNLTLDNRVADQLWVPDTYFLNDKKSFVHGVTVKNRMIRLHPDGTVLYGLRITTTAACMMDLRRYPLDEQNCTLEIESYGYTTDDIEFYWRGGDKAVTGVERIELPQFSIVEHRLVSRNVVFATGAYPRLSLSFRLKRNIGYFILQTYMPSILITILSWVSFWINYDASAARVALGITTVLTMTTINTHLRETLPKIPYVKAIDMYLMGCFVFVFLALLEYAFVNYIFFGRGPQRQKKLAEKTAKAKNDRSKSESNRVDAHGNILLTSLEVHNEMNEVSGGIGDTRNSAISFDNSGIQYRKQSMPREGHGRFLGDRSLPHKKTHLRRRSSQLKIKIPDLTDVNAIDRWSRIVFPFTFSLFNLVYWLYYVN

Molecule	DSC observation of exothermic events (in words) ([1]; solid analysed by DSC)	DSC exothermic decomposition onset [1]	TGA decomposition onset [2]	other results
Oc1noc2c1CCNC2 [Calcium Salt, gaboxadol calcium]	exhibited exothermic decomposition			
C[N+](C)(C)CCO.[O-]c1noc2c1CCNC2 [Choline Salt, gaboxadol choline]	exhibited exothermic transitions			
Oc1noc2c1CCNC2.c1ccc(CNCCNCc2ccccc2)cc1 [N,N-Dibenzyl-ethylenediamine Salt, gaboxadol N,N-dibenzyl(ethylene)diamine]	exhibited an exothermic transition			
Oc1noc2c1CCNC2 [Potassium Salt, gaboxadol potassium]	exhibited exothermic transitions			
Oc1noc2c1CCNC2 [Sodium Salt, gaboxadol sodium]	exhibited exothermic transitions			
O=C(O)CC(O)(CC(=O)O)C(=O)O.Oc1noc2c1CCNC2 [gaboxadol citrate]		175 °C	about 190 °C	TGA weight loss ([2]; from 32° C. to 103° C.): 8.9 wt %
Oc1noc2c1CCNC2 [gaboxadol, 4,5,6,7-tetrahydroisoxazolo[5,4-c]pyridin-3-ol]				Agonist potency (in words) [3]: particularly potent agonist
gaboxadol L-lysine [L-Lysine Salt]	exhibited exothermic transitions			
gaboxadol acetate [Acetate Salt]			205 °C	DSC exothermic transition onset [1]: 204 °C; TGA weight loss ([2]; from 40° C. to 115° C.): 5.0 wt %
gaboxadol bis-sulfate [Sulfate Salt from ethanol and acetonitrile (Type III)]		207 °C	about 220 °C	TGA weight loss, step 2 ([2]; from 118° C. to 154° C.): 0.8 wt %; TGA weight loss, step 1 ([2]; from about 50° C. to 118° C.): 1.4 wt %
gaboxadol bis-sulfate [Sulfate Salt from trifluorotoluene (Type I)]		220 °C	about 220 °C	TGA weight loss, step 2 ([2]; from 87° C. to 180° C.): 4.3 wt %; TGA weight loss, step 1 ([2]; from about 50° C. to 87° C.): 1.2 wt %
gaboxadol citrate [Citrate Salt from isopropyl acetate]			about 190 °C	DSC exothermic transition onset [1]: 175 °C; TGA weight loss ([2]; from 31° C. to 109° C.): 18.5 wt %
gaboxadol fumarate [Fumarate Salt]		215 °C	about 190 °C	TGA weight loss before decomposition (in words) [2]: no weight loss
gaboxadol magnesium [Magnesium Salt]				Temperature below which DSC indicated no exothermic events ([1]; solid analysed by DSC): approximately 345 °C
gaboxadol phosphate [Phosphate Salt]		about 200 °C	214 °C	TGA weight loss before decomposition (in words) [2]: no weight loss
gaboxadol succinate [Succinate Salt]		198 °C	193 °C	TGA weight loss before decomposition (in words) [2]: no weight loss
gaboxadol sulfate [Sulfate Salt (1 mol equiv.)]		about 190 °C	196 °C	TGA weight loss ([2]; from 50° C. to 176° C.): 7.1 wt %
gaboxadol tartrate [L-Tartrate Salt]		199 °C	about 189 °C	TGA weight loss ([2]; from 31° C. to 177° C.): 0.6 wt %
